One data set has as its system S. aureus ATCC 29213. As to the kind of experiment: Antibacterial screening, broth microdilution (MIC/MBC). The class given is cell-based, Staphylococcus aureus. To be noted: Staphylococcus aureus, ATCC29213; for MIC: S. aureus ATCC 29213, MHB, 24 h, 35 °C, read-out: MIC; for MBC: S. aureus ATCC 29213, read-out: MBC. The procedure: (§1) The antimicrobial activities of a series of compounds 1–5 were tested through the utilization of seven reference species, encompassing both Gram-positive (Staphylococcus aureus ATCC 29213, Staphylococcus epidermidis ATCC 12228, Micrococcus luteus ATCC 10240) and Gram-negative (Escherichia coli ATCC 25922, Klebsiella pneumoniae ATCC 13883, Proteus mirabilis ATCC 12453, Acinetobacter baumannii ATCC 19606) bacteria as model microorganisms. For this purpose, microbial suspensions were prepared in sterile saline (0.85% NaCl) with an optical density of 0.5 McFarland standard, yielding a concentration of 150 × 10^6 CFU/mL (CFU, colony-forming units). All of the stock solutions of the tested compounds were dissolved in DMSO. Amoxicillin (Glentham Life Sciences Ltd., Corsham, UK) was used as a positive control.
(§2) The MIC values of the tested compounds were determined by serial twofold dilutions of 1–5 in Mueller Hinton Broth (MHB, Biomaxima, Lublin, Poland). The range of final 1–5 concentrations used was from 0.49 up to 1000 μg/mL, and for amoxicillin from 0.12 up to 250 μg/mL in the 96-well microtiter plates (Medlab, Raszyn, Poland), starting with 98 μL MHB and 2 μL bacterial inoculum added to each well. Positive controls consisted of 100 μL MHB in each well with the tested compounds at the same concentration range. The negative controls consisted of 100 μL of MHB only. Each set of tests and controls was established with three replicates. The microtiter plates were then subjected to an incubation period of 24 h at a temperature of 35 ± 2 °C. After incubation, the optical density of the microbial growth was measured at a wavelength of 600 nm using a microplate reader, the Biotek Elx800 (BioTek Instruments, Inc., Winooski, VT, USA). The MIC value was defined as the lowest concentration of the tested compound at which there was no visible growth of the tested microorganisms. The determination of the MIC values was achieved by employing the broth microdilution method, in accordance with the recommendations of the European Committee on Antimicrobial Susceptibility Testing (EUCAST). […] Then, the MHA plates were incubated overnight at 35 ± 2 °C. […] The MIC and MBC values were reported in μg/mL, according to the EUCAST reference.

The subject of the next data set is P. mirabilis ATCC 12453. The data set is described as above. The class given is cell-based, Proteus mirabilis. To be noted: Proteus mirabilis, ATCC12453; P. mirabilis ATCC 12453, MHB, 24 h, 35 °C; read-out: MIC. On the procedure:
as §1, §2

Data set [1] deals with S. epidermidis ATCC 12228. The data set is described as above. To be noted: for MIC / MBC: Staphylococcus epidermidis, ATCC12228; for MIC: S. epidermidis ATCC 12228, MHB, 24 h, 35 °C, read-out: MIC; for MBC: read-out: MBC. The class given is cell-based, Staphylococcus epidermidis. On the procedure:
as §1, §2

Data set [2] can be described thus: Cytotoxicity, microculture tetrazolium (MTT) test, H1HeLa. The class given is cell-based. The following applies: human, H1HeLa cells (cervical adenocarcinoma, ATCC CRL-1958); H1HeLa (cervical adenocarcinoma), 24 h incubation, MTT; ± SD. The procedure:
The cytotoxicity of biaryl monophosphines was tested in vitro in normal (VERO) and cancer-derived (H1HeLa) cells after 24 h of incubation using a microculture tetrazolium test. Table 2 presents the CC50 (concentrations decreasing the cellular viability by 50%) values calculated from dose–response cytotoxicity curves (Figure 4).
Cytotoxicity was evaluated using a microculture tetrazolium test as previously described, and details can be found in the Supplementary Materials. The cell lines used in the presented study were acquired from the American Type Culture Collection (ATCC); the one used for cytotoxicity testing included non-cancerous VERO (kidney; ATCC CCL-81) cells and cancer-originating H1HeLa (cervical adenocarcinoma; ATCC CRL-1958) cells. VERO cells were cultured in Dulbecco’s Modified Eagle’s Medium (DMEM; Corning, Tewksbury, MA, USA), while Eagle’s Minimum Essential Medium (MEM; Corning) was used for H1HeLa. Antibiotics (penicillin–streptomycin solution, Corning) and fetal bovine serum (FBS, Corning) were added to cell media. Cells were incubated in a 5% CO2 atmosphere at 37 °C (CO2 incubator, Panasonic Healthcare Co., Tokyo, Japan). Briefly, the monolayers of VERO or H1HeLa cells in 96-well plates (Falcon, Corning) were treated with serial dilutions of selected compounds for 24 h. After this, the medium was removed, the plates were washed with phosphate buffered saline (PBS; Corning), a 10% solution of (3-(4,5-dimethylthiazol-2-yl)-2,5-diphenyltetrazolium bromide (MTT; Sigma-Aldrich, St. Louis, MO, USA) (5 mg/mL) in FBS-free cell media was added, and the incubation continued for the next 4 h. Subsequently, the precipitated formazan crystals were dissolved, and after overnight incubation at 37 °C, the Synergy H1 Multi-Mode Microplate Reader (BioTek Instruments, Inc., Winooski, VT, USA) with Gen5 software (ver. 3.09.07; BioTek Instruments, Inc.) was used for absorbance acquisition (540 and 620 nm). Data was exported to GraphPad Prism (ver. 10) to calculate the CC50 values (50% cytotoxic concentration) from dose–response curves.
Aromaticity Tuning in Biaryl Monophosphines and Their Derivatives […]
Cell line maintenance and in vitro experiments
The cytotoxicity of selected biaryl monophosphines was evaluated in vitro towards normal VERO (ATCC, CCL-81) cells and cancer-derived cell line H1HeLa (cervical adenocarcinoma; ATCC (American Type Culture Collection) CRL-1958) using 3-(4,5-dimethylthiazol-2-yl)-2,5-diphenylte-trazolium bromide (MTT) based protocol.
Media used for in vitro culturing included Dulbecco's Modified Eagle's Medium (DMEM, Corning, Tewksbury, MA, USA) used for VERO cells and Modified Eagle Medium (MEM, Corning) used for H1HeLa. Cell media used in the experiments were supplemented with antibiotics (Penicil-lin-Streptomycin Solution, Corning) and fetal bovine serum (FBS, Corning) – 10% (cell passaging) and 2% (cell maintenance and experiments). Phosphate-buffered saline (PBS) and trypsin were bought from Corning, whereas MTT (3-(4,5-dimethylthiazol-2-yl)-2,5-diphenyltetrazolium bromide) from Sigma (Sigma-Aldrich, St. Louis, MO, USA). SDS was purchased from PanReac Applichem (Darmstadt, Germany). Incubation was carried out in a 5% CO2 atmosphere at 37°C (CO2 incubator, Panasonic Healthcare Co., Tokyo, Japan).
Concentrations of cells for passaging were as follows: VERO – 1.5*10^5 cells/mL, H1HeLa – 2*10^5 cells/mL. Routine observations of cell cultures and experiments were carried out using an in-verted microscope (CKX41, Olympus Corporation, Tokyo, Japan) equipped with a ca mera (Moti-cam 3+, Motic, Hong Kong), and the results were recorded (Motic Images Plus 2.0, Motic).
Stock solutions of biaryl monophosphines were prepared by dissolving the samples in cell culture grade DMSO (PanReac Applichem).
Evaluation of cytotoxicity
Cytotoxicity was tested using an MTT-based protocol. The cells were passaged into 96-well plates (Falcon, TC-treated, Corning) and, after overnight incubation, treated with serial dilutions of […]

Values after ≈ are worked out from the molar mass of the structure shown.

This is an account of results in publication PMC12525867, “Aromaticity Tuning in Biaryl Monophosphines and Their Derivatives” (Molecules, 2025).

As to `COc1cc(OC)c(-c2c(P(=O)(C3CCCCC3)C3CCCCC3)c(O)c3ccccc3c2OC)c(OC)c1` [Compound 3, 2-(Dicyclohexylphosphoryl)-4-methoxy-3-(2,4,6-trimethoxyphenyl)naphthalen-1-ol], the MIC (usually the smallest concentration in the dilution series that meets the test's criterion for growth inhibition) was 62.5 to 125 µg/mL (≈ 113 to 226 µM) in the data set with S. aureus ATCC 29213, more than 1000 µg/mL in the data set with P. mirabilis ATCC 12453 and 31.2 µg/mL (≈ 56.5 µM) in data set [1]. The minimal bactericidal concentration (MBC) (in the data set on S. aureus ATCC 29213; in data set [1] (S. epidermidis ATCC 12228)) was more than 1000 µg/mL throughout. The CC50 (usually the concentration at which the toxic effect on the cells reaches its halfway point) at 24 h in data set [2] came out at 3.83 ± 0.33 µg/mL.
In the case of `COc1cc(OC)c(-c2c(P(=O)(C3CCCCC3)C3CCCCC3)c(OC)c3ccccc3c2OC)c(OC)c1` [Compound 1, Dicyclohexyl[1,4-dimethoxy-3-(2,4,6-trimethoxyphenyl)naphthalen-2-yl]phosphane oxide], the MIC in the data set with S. aureus ATCC 29213 was 15.6 to 31.2 µg/mL (≈ 27.6 to 55.1 µM); with P. mirabilis ATCC 12453, more than 1000 µg/mL; in data set [1], 15.6 to 31.2 µg/mL (≈ 27.6 to 55.1 µM). Also, the figures for the MBC (in the data set on S. aureus ATCC 29213; in data set [1] (S. epidermidis ATCC 12228)) were more than 1000 µg/mL and 250 µg/mL (≈ 441 µM), respectively. In data set [1] (S. epidermidis ATCC 12228), the “type of activity (bactericidal or bacteriostatic)” value is on record as “bactericidal”. Further, the CC50 at 24 h in data set [2] is 6.78 ± 0.27 µg/mL.
`COc1ccccc1-c1c(P(=O)(C2CCCCC2)C2CCCCC2)c(OC)c2ccccc2c1OC` [Compound 2, Dicyclohexyl[1,4-dimethoxy-3-(2-methoxyphenyl)naphthalen-2-yl]phosphane oxide]: the results for the MIC (in the data set on S. aureus ATCC 29213; with P. mirabilis ATCC 12453; in data set [1]) were 7.82 to 15.6 µg/mL (≈ 15.4 to 30.9 µM), more than 1000 µg/mL and 3.91 to 7.89 µg/mL (≈ 7.72 to 15.6 µM), respectively. For the same molecule, the MBC (with S. aureus ATCC 29213; in data set [1] (S. epidermidis ATCC 12228)) was more than 1000 µg/mL in each case. The CC50 at 24 h in data set [2] was 5.92 ± 0.4 µg/mL.
